Measured values: patent US4921850A, “3-propenylcephem derivative” (Eisai Co., Ltd., priority 1986, dated 1990)
In brackets after ≈: the same amount, converted by molar mass. Where two headings read alike, the source gives them in different places.

Legend:
Assay in all cases: Anti-bacterial activity (MIC), agar dilution
Assay type in all cases: cell-based
Escher. coli NIHJ = tested on: Escher. coli NIHJ
Experimental: (§1) MIC (μg/ml) were determined by an agar dilution method [Chemotherapy (Japan), 29, 76-79, 1981]. Overnight cultures of the bacterial strains in Mueller-Hinton broth were diluted to final concentration of about 10^6 CFU/ml, and 5 μl of each bacterial suspension was spotted onto Mueller-Hinton agar plates that contained twofold serial dilutions of antibiotics. MICs were measured after incubation for 18 hours at 37° C.

Kleb. pneumoniae EK-6 = conditions: Kleb. pneumoniae EK-6, agar dilution, about 10^6 CFU/ml, 18 hours, 37° C.
Experimental: as §1

[1] = tested on: Morganella morganii EP-14; conditions: about 10^6 CFU/ml, 37° C.
Experimental: as §1

Pseud. aeruginosa EP-01 = conditions: Pseud. aeruginosa EP-01, agar dilution, about 10^6 CFU/ml, 18 hours, 37° C.
Experimental: as §1

Ser. marcescens ES-75 = conditions: Ser. marcescens ES-75, agar dilution, about 10^6 CFU/ml, 18 hours, 37° C.
Experimental: as §1

Staph. aureus 209-P = conditions: Staph. aureus 209-P, agar dilution, about 10^6 CFU/ml, 18 hours, 37° C.
Experimental: as §1

[2] = Escherichia coli, 18 h, Escher. coli NIHJ, agar dilution, about 10^6 CFU/ml, 18 hours, 37° C., read-out: MIC
[3] = Klebsiella pneumoniae, EK6, 18 h, read-out: MIC
[4] = Morganella morganii, EP14, 18 h, read-out: MIC
[5] = Pseudomonas aeruginosa, EP01, 18 h, read-out: MIC
[6] = Serratia marcescens, ES75, 18 h, read-out: MIC
[7] = Staphylococcus aureus, 209P, 18 h, read-out: MIC

| SMILES | MIC (Escher. coli NIHJ; Escher. coli NIHJ, agar dilution, about 10^6 CFU/ml, 18 hours, 37° C.) [µg/mL] | MIC (Kleb. pneumoniae EK-6) [µg/mL] | MIC ([1]; 18 hours) [µg/mL] | MIC (Pseud. aeruginosa EP-01) [µg/mL] | MIC (Ser. marcescens ES-75) [µg/mL] | MIC (Staph. aureus 209-P) [µg/mL] | MIC (Escher. coli NIHJ; [2]) [µg/mL] | MIC (Kleb. pneumoniae EK-6; [3]) [µg/mL] | MIC [1, 4] [µg/mL] | MIC (Pseud. aeruginosa EP-01; [5]) [µg/mL] | MIC (Ser. marcescens ES-75; [6]) [µg/mL] | MIC (Staph. aureus 209-P; [7]) [µg/mL] | MIC (Escher. coli NIHJ; Escherichia coli, 18 h) [µg/mL] |
| --- | --- | --- | --- | --- | --- | --- | --- | --- | --- | --- | --- | --- | --- |
| C[N+](C)(C/C=C/C1=C(C(=O)[O-])N2C(=O)[C@@H](NC(=O)/C(=N\OCF)c3nsc(N)n3)[C@H]2SC1)[C@@H](CC(N)=O)C(N)=O [Example 60] | – | – | – | – | – | – | ≤ 0.025 | 0.05 (≈ 0.0834 µM) | ≤ 0.025 | 1.56 (≈ 2.6 µM) | ≤ 0.025 | 0.2 (≈ 0.334 µM) | – |
| Nc1nc(/C(=N/OCF)C(=O)N[C@@H]2C(=O)N3C(C(=O)[O-])=C(/C=C/C[N+](CCO)(CCO)CCO)CS[C@H]23)ns1 [Example 143, 7β-[2-(5-Amino-1,2,4-thiadiazol-3-yl)-(Z)-2 fluoromethoxyiminoacetamido]-3-[(E)-3-[tris(2-hydroxyethyl)ammonio]-1-propen-1-yl]-3-cephem-4-carboxylate] | – | – | – | – | – | – | 0.05 (≈ 0.0848 µM) | ≤ 0.025 | ≤ 0.025 | 0.8 (≈ 1.36 µM) | 0.1 (≈ 0.17 µM) | 0.2 (≈ 0.339 µM) | – |
| NC(=O)C[N+]1(C/C=C/C2=C(C(=O)[O-])N3C(=O)[C@@H](NC(=O)/C(=N\OCF)c4nsc(N)n4)[C@H]3SC2)CCOCC1 [Example 35] | – | – | – | – | – | – | 0.05 (≈ 0.0855 µM) | ≤ 0.025 | 0.05 (≈ 0.0855 µM) | 0.8 (≈ 1.37 µM) | 0.1 (≈ 0.171 µM) | 0.4 (≈ 0.684 µM) | – |
| CC[N+](C)(C/C=C/C1=C(C(=O)[O-])N2C(=O)[C@@H](NC(=O)/C(=N\OCF)c3nsc(N)n3)[C@H]2SC1)CCO (some centres unmarked) [Example 44] | – | – | – | – | – | – | 0.05 (≈ 0.092 µM) | ≤ 0.025 | 0.05 (≈ 0.092 µM) | 1.56 (≈ 2.87 µM) | 0.1 (≈ 0.184 µM) | 0.4 (≈ 0.736 µM) | – |
| N#CC[N+]1(C/C=C/C2=C(C(=O)[O-])N3C(=O)[C@@H](NC(=O)/C(=N\OCF)c4nsc(N)n4)[C@H]3SC2)CCCC1 [Example 14] | – | – | – | – | – | – | – | ≤ 0.025 | ≤ 0.025 | 0.8 (≈ 1.45 µM) | 0.05 (≈ 0.0908 µM) | 0.2 (≈ 0.363 µM) | ≤ 0.025 |
| C[C@@H](CO)[N+](C)(C)C/C=C/C1=C(C(=O)[O-])N2C(=O)[C@@H](NC(=O)/C(=N\OCC#N)c3nsc(N)n3)[C@H]2SC1 [Example 148] | – | – | – | – | – | – | – | 0.05 (≈ 0.0908 µM) | 0.1 (≈ 0.182 µM) | 1.56 (≈ 2.83 µM) | 0.05 (≈ 0.0908 µM) | 0.4 (≈ 0.726 µM) | – |
| NC(=O)N1CC[N+](C/C=C/C2=C(C(=O)[O-])N3C(=O)[C@@H](NC(=O)/C(=N\OCF)c4nsc(N)n4)[C@H]3SC2)(CC(O)CO)CC1 (some centres unmarked) [Example 30] | – | – | – | – | – | – | 0.05 (≈ 0.0777 µM) | 0.05 (≈ 0.0777 µM) | 0.05 (≈ 0.0777 µM) | 1.56 (≈ 2.42 µM) | 0.2 (≈ 0.311 µM) | 0.4 (≈ 0.621 µM) | – |

Further lines, with some results ahead:

| MIC (Escher. coli NIHJ; Escher. coli NIHJ, agar dilution, about 10^6 CFU/ml, 18 hours, 37° C.) [µg/mL] | MIC (Kleb. pneumoniae EK-6) [µg/mL] | MIC ([1]; 18 hours) [µg/mL] | MIC (Pseud. aeruginosa EP-01) [µg/mL] | MIC (Ser. marcescens ES-75) [µg/mL] | MIC (Staph. aureus 209-P) [µg/mL] | MIC (Escher. coli NIHJ; [2]) [µg/mL] | MIC (Kleb. pneumoniae EK-6; [3]) [µg/mL] | MIC [1, 4] [µg/mL] | MIC (Pseud. aeruginosa EP-01; [5]) [µg/mL] | MIC (Ser. marcescens ES-75; [6]) [µg/mL] | MIC (Staph. aureus 209-P; [7]) [µg/mL] | SMILES | MIC (Escher. coli NIHJ; Escherichia coli, 18 h) [µg/mL] |
| --- | --- | --- | --- | --- | --- | --- | --- | --- | --- | --- | --- | --- | --- |
| ≤ 0.025 | ≤ 0.025 | ≤ 0.025 | 0.8 (≈ 1.47 µM) | ≤ 0.025 | 0.4 (≈ 0.736 µM) | – | – | – | – | – | – | CC(O)C[N+](C)(C)CC=CC1=C(C(=O)[O-])N2C(=O)C(NC(=O)C(=NOCF)c3nsc(N)n3)C2SC1 (centres unmarked) [Example 66] | – |
| – | – | – | – | – | – | ≤ 0.025 | ≤ 0.025 | ≤ 0.025 | 0.8 (≈ 1.4 µM) | ≤ 0.025 | 0.2 (≈ 0.349 µM) | C[N+](C)(C/C=C/C1=C(C(=O)[O-])N2C(=O)[C@@H](NC(=O)/C(=N\OCF)c3nsc(N)n3)[C@H]2SC1)CC(=O)NCO [Example 92] | – |
| – | – | – | – | – | – | ≤ 0.025 | ≤ 0.025 | ≤ 0.025 | 0.8 (≈ 1.34 µM) | ≤ 0.025 | 0.4 (≈ 0.668 µM) | NC(=O)C[N+]1(C/C=C/C2=C(C(=O)[O-])N3C(=O)[C@@H](NC(=O)/C(=N\OCF)c4nsc(N)n4)[C@H]3SC2)CCC[C@@H]1CO (some centres unmarked) [Example 17] | – |
| – | – | – | – | – | – | 0.05 (≈ 0.0902 µM) | 0.05 (≈ 0.0902 µM) | 0.05 (≈ 0.0902 µM) | 3.13 (≈ 5.64 µM) | 0.2 (≈ 0.361 µM) | 0.2 (≈ 0.361 µM) | NCC[N+]1(C/C=C/C2=C(C(=O)[O-])N3C(=O)[C@@H](NC(=O)/C(=N\OCF)c4nsc(N)n4)[C@H]3SC2)CCCC1 [Example 22] | – |
| – | – | – | – | – | – | 0.05 (≈ 0.0823 µM) | 0.05 (≈ 0.0823 µM) | ≤ 0.025 | 1.56 (≈ 2.57 µM) | 0.2 (≈ 0.329 µM) | 0.4 (≈ 0.658 µM) | Nc1nc(/C(=N/OC(F)F)C(=O)N[C@@H]2C(=O)N3C(C(=O)[O-])=C(/C=C/C[N+](CCO)(CCO)CCO)CS[C@H]23)ns1 [Example 117] | – |
